# Data as given in PubChem BioAssay (NCI).
# “And” between values parts separate entries of the source, which are not always exact repeats. Equal entries are not always repeated.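 Results reflect a 48-hour exposure of cells in 96-well plates to compound at five concentrations. GI50 = concentration required for 50% inhibition of growth. TGI: concentration producing complete growth inhibition.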
# Test system: SNB-19 CNS
# Assay: growth of human tumour cells (NCI), 48 h
Compound,GI50,TGI
O=C(OCc1ccc2cccc(O)c2n1)N1CCN(C(=O)c2cc3cc(F)ccc3[nH]2)CC1,1.55 µM,2.92 µM
C[As](C)SC1OC(CO)C(O)C1O (stereo not drawn),8.68 µM,> 57.6 µM
Cn1c(=O)c2c(nc(Nc3cc(=O)[nH]c(=O)[nH]3)n2Cc2ccccc2)n(C)c1=O,> 100 µM,> 100 µM
COc1ccc2c(c1)CCC1C2CC[C@@]2(C)C1CC1=CC(COC(C)=O)C3C(=O)c4ccccc4C(=O)C3C12 (stereo partly drawn),> 100 µM,> 100 µM
C=C(F)C(=O)N1CCN(c2nc(OC[C@@H]3CCCN3C)nc3c2CCN(c2cccc4cccc(Cl)c24)C3)C[C@@H]1CC#N,1.19 µM,5.32 µM
Cc1c2cccnc2c(C)c2c1c1cc(CO)ccc1n2C,2.67 µM,14.6 µM
CC/C(=C(/c1ccc(OCCN(C)C)cc1)c1ccc(OC(=O)CCCCC(=O)c2c(C)[nH]c(/C=C3\N=C(c4ccc[nH]4)C=C3OC)c2C)cc1)c1ccccc1,12.8 µM,27.4 µM
CC[C@]12C=CCN3CC[C@@]4(c5ccc(OC)cc5N(C)[C@H]4[C@@](O)(C(=O)OC)[C@@H]1OC(=O)CCC[P+](c1ccccc1)(c1ccccc1)c1ccccc1)[C@@H]32,0.296 µM and 0.382 µM,6.04 µM and 1.66 µM
CC(=O)OC1Oc2ccccc2-c2oc(=O)c(-c3cc(=O)oc4cc(O)ccc34)cc21 (stereo not drawn),26.6 µM,> 100 µM
CC(C)(C)C(=O)OCOP(=O)(OCOC(=O)C(C)(C)C)C1CCCN(O)C1=O (stereo not drawn),0.551 µM,28.7 µM
CC(SC(C)C(=O)N/N=C/c1cccc(Cl)c1)C(=O)N/N=C\c1cccc(Cl)c1 (stereo not drawn),21.7 µM,> 100 µM
CCOC(=O)/C=C/C(C(=O)/C=C/c1ccc(OC2CCCCO2)c(OC)c1)=C(O)\C=C\c1ccc(OC2CCCCO2)c(OC)c1 (stereo not drawn),5.32 µM,25.2 µM
Cc1ccc(Cl)cc1Nc1nc(C(F)(F)F)ccc1C(=O)N1CCN(c2ccc(F)cc2)CC1,14.9 µM,30.5 µM
COC(=O)c1cc2c(cc1O)[C@@H](NC(C)=O)CCc1cc(OC)c(OC)c(OC)c1-2,0.0355 µM,> 100 µM
CC1OC2CC(=O)OC2C2=C1C(=O)c1c(O)cccc1C2=O (stereo not drawn),1.08 µM,2.48 µM
C=C(C)[C@@]12OC3(/C=C/C=C/CCCCC)O[C@@H]1[C@@H]1[C@@H]4O[C@]4(CO)[C@@H](O)[C@]4(O)C(=O)C(C)=C[C@H]4[C@@]1(O3)[C@H](C)[C@H]2OC(=O)c1ccccc1,1.92 µM,3.91 µM

# Test system: NCI/ADR-RES ovarian
# Assay: growth of human tumour cells (NCI), 48 h
Compound,TGI [µM],GI50
O=C(CCCn1ccnc1[N+](=O)[O-])NCCn1cncc1[N+](=O)[O-],> 100,–
Cn1cc(C2=C(c3ccc4ccccc4c3)C(=O)NC2=O)c2ccccc21,> 25,> 23.9 µM
O=C(OCc1ccc2cccc(O)c2n1)N1CCN(C(=O)c2cc3cc(F)ccc3[nH]2)CC1,6.07,1.76 µM
C[As](C)SC1OC(CO)C(O)C1O (stereo not drawn),5.75,0.825 µM
Cn1c(=O)c2c(nc(Nc3cc(=O)[nH]c(=O)[nH]3)n2Cc2ccccc2)n(C)c1=O,> 100,> 100 µM
COc1ccc2c(c1)CCC1C2CC[C@@]2(C)C1CC1=CC(COC(C)=O)C3C(=O)c4ccccc4C(=O)C3C12 (stereo partly drawn),> 100,> 100 µM
C=C(F)C(=O)N1CCN(c2nc(OC[C@@H]3CCCN3C)nc3c2CCN(c2cccc4cccc(Cl)c24)C3)C[C@@H]1CC#N,3.19,0.601 µM
Cc1c2cccnc2c(C)c2c1c1cc(CO)ccc1n2C,8.51,1.3 µM
CC/C(=C(/c1ccc(OCCN(C)C)cc1)c1ccc(OC(=O)CCCCC(=O)c2c(C)[nH]c(/C=C3\N=C(c4ccc[nH]4)C=C3OC)c2C)cc1)c1ccccc1,46.8,12.6 µM
CC[C@]12C=CCN3CC[C@@]4(c5ccc(OC)cc5N(C)[C@H]4[C@@](O)(C(=O)OC)[C@@H]1OC(=O)CCC[P+](c1ccccc1)(c1ccccc1)c1ccccc1)[C@@H]32,> 100,> 50 µM and 68.9 µM
CC(=O)OC1Oc2ccccc2-c2oc(=O)c(-c3cc(=O)oc4cc(O)ccc34)cc21 (stereo not drawn),44.6,18.1 µM
CC(C)(C)C(=O)OCOP(=O)(OCOC(=O)C(C)(C)C)C1CCCN(O)C1=O (stereo not drawn),3.55,0.434 µM
CC(SC(C)C(=O)N/N=C/c1cccc(Cl)c1)C(=O)N/N=C\c1cccc(Cl)c1 (stereo not drawn),> 100,71.7 µM
CCOC(=O)/C=C/C(C(=O)/C=C/c1ccc(OC2CCCCO2)c(OC)c1)=C(O)\C=C\c1ccc(OC2CCCCO2)c(OC)c1 (stereo not drawn),46.3,10.6 µM
Cc1ccc(Cl)cc1Nc1nc(C(F)(F)F)ccc1C(=O)N1CCN(c2ccc(F)cc2)CC1,36.7,13.3 µM
COC(=O)c1cc2c(cc1O)[C@@H](NC(C)=O)CCc1cc(OC)c(OC)c(OC)c1-2,–,0.0596 µM
CC1OC2CC(=O)OC2C2=C1C(=O)c1c(O)cccc1C2=O (stereo not drawn),0.646,0.0892 µM
C=C(C)[C@@]12OC3(/C=C/C=C/CCCCC)O[C@@H]1[C@@H]1[C@@H]4O[C@]4(CO)[C@@H](O)[C@]4(O)C(=O)C(C)=C[C@H]4[C@@]1(O3)[C@H](C)[C@H]2OC(=O)c1ccccc1,8.9,3.13 µM

# Test system: SK-MEL-28 melanoma
# Assay: growth of human tumour cells (NCI), 48 h
Compound,TGI [µM],GI50 [µM]
O=C(CCCn1ccnc1[N+](=O)[O-])NCCn1cncc1[N+](=O)[O-],> 100,–
Cn1cc(C2=C(c3ccc4ccccc4c3)C(=O)NC2=O)c2ccccc21,> 25,> 25
O=C(OCc1ccc2cccc(O)c2n1)N1CCN(C(=O)c2cc3cc(F)ccc3[nH]2)CC1,3.05,1.68
C[As](C)SC1OC(CO)C(O)C1O (stereo not drawn),5.45,0.522
Cn1c(=O)c2c(nc(Nc3cc(=O)[nH]c(=O)[nH]3)n2Cc2ccccc2)n(C)c1=O,> 100,> 100
COc1ccc2c(c1)CCC1C2CC[C@@]2(C)C1CC1=CC(COC(C)=O)C3C(=O)c4ccccc4C(=O)C3C12 (stereo partly drawn),> 100,> 100
C=C(F)C(=O)N1CCN(c2nc(OC[C@@H]3CCCN3C)nc3c2CCN(c2cccc4cccc(Cl)c24)C3)C[C@@H]1CC#N,2.72,1.32
Cc1c2cccnc2c(C)c2c1c1cc(CO)ccc1n2C,10.9,3.01
CC/C(=C(/c1ccc(OCCN(C)C)cc1)c1ccc(OC(=O)CCCCC(=O)c2c(C)[nH]c(/C=C3\N=C(c4ccc[nH]4)C=C3OC)c2C)cc1)c1ccccc1,23.7,11.6
